# Test results published in ChEMBL document CHEMBL5537212, “Benzodioxane Carboxamide Derivatives As Novel Monoamine Oxidase B Inhibitors with Antineuroinflammatory Activity” (ACS Med Chem Lett, 2024).
# Columns and labels:
# [1] = target: T1, Amine oxidase [flavin-containing] B (Homo sapiens, UniProt P27338); assay: Inhibition of recombinant human MAO-B using benzylamine as substrate at 1 uM incubated for 20 mins by fluorescence microplate reader analysis relative to control; conditions: read-out: INH
# T1 sequence (P27338 whole entry): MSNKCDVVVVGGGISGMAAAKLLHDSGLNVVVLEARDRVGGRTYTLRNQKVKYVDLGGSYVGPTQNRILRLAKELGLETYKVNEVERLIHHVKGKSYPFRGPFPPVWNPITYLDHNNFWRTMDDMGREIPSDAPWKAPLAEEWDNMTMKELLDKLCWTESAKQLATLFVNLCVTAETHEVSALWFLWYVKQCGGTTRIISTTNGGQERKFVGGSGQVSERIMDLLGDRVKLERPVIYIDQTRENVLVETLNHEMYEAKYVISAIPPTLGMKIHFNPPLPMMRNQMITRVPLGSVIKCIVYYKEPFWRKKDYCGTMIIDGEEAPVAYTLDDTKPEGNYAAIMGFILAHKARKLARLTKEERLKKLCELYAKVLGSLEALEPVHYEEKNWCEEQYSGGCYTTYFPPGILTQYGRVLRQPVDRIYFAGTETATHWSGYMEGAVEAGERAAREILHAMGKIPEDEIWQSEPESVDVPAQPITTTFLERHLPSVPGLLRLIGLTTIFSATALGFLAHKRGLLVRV
# [2] = target: T2, Amine oxidase [flavin-containing] A (Homo sapiens, UniProt P21397)
# T2 sequence (P21397 whole entry): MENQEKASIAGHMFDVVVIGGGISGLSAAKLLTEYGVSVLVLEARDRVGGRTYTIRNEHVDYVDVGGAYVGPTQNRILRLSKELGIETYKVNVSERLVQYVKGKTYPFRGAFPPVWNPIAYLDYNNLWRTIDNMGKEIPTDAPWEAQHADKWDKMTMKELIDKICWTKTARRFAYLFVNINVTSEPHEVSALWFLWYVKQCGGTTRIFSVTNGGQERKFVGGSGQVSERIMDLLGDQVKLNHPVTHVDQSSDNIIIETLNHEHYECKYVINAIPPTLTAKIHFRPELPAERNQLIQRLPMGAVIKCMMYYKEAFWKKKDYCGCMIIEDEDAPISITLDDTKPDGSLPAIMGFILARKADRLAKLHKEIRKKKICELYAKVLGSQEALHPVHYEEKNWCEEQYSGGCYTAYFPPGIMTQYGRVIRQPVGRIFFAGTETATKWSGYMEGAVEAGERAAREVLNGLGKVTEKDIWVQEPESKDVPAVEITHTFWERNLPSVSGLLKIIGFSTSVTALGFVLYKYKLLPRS
# Description: Inhibition of recombinant human MAO-A incubated for 15 mins by Amplex Red reagent and horseradish peroxidase based fluorescence microplate reader analysis
# [3] = target: T2, Amine oxidase [flavin-containing] A; assay: Inhibition of recombinant human MAO-A at 0.1 uM incubated for 15 mins by Amplex Red reagent and horseradish peroxidase based fluorescence microplate reader analysis relative to control; conditions: 0.25 h
inhibition at 1 µM [1] [%],IC50 [2] [µM],SMILES,inhibition at 0.1 µM [3] [%]
< 5,> 40,O=C(Nc1ccccc1)c1ccc2c(c1)OCO2,–
< 5,> 40,COc1ccc(NC(=O)c2ccc3c(c2)OCCO3)cc1OC,–
19.7,> 40,COc1cccc(NC(=O)c2ccc3c(c2)OCCO3)c1,–
< 5,> 40,O=C(NCc1ccccc1)c1ccc2c(c1)OCCO2,–
< 5,> 40,O=C(Nc1cccc(Cl)c1)c1ccccc1,–
30.8,> 40,O=C(Nc1ccc2c(c1)OCCO2)c1ccc(Cl)c(Cl)c1,–
< 5,> 40,O=C(Nc1ccccc1Cl)c1ccc2c(c1)OCCO2,–
53,> 40,O=C(Nc1cccc(Cl)c1Cl)c1ccc2c(c1)OCCO2,–
36.1,> 40,O=C(Nc1ccc2c(c1)OCCO2)c1ccc2c(c1)OCCO2,–
27.4,> 40,COc1ccc(NC(=O)c2ccc3c(c2)OCCO3)cc1Cl,–
< 5,> 40,COc1ccc(NC(=O)c2ccc3c(c2)OCCO3)cc1,–
13.8,> 40,O=C(Nc1ccc2[nH]ncc2c1)c1ccc2c(c1)OCCO2,–
19.1,> 40,O=C(Nc1ccccc1F)c1ccc2c(c1)OCCO2,–
–,> 40,O=C(Nc1ccc(Br)cc1)c1ccc2c(c1)OCCO2,–
40.2,> 40,O=C(Nc1ccc(Cl)c(Cl)c1)c1ccccc1,–
–,–,C#CCN(C)CCCOc1ccc(Cl)cc1Cl [CLORGILINE],79.9
< 5,> 40,O=C(Nc1ccccc1)c1ccccc1 [N-PHENYLBENZAMIDE],–
